Values joined by “and” are separate entries in the source; they are usually repeats but may differ in a detail not shown here. Equal values may be shown once.
Tests used:
[1] = system: PC9/gef B4 cells; test: cells; format: cell-based, human
[2] = complete blood count and blood chemistry test in ICR mice; format: in vivo; settings: 40 mg/kg i.v.
[3] = acute toxicity LD50 in ICR mice; settings: male, mouse, in vivo
[4] = system: 11 NSCLC cell lines; test: cytotoxicity against batch of 11 NSCLC cell lines; format: cell-based; settings: Homo sapiens, read-out: IC50 values against NSCLC cells (range)
[5] = target: topo I (Homo sapiens, UniProt P11387); test: topo I activity assay with nuclear extracts of treated H460 cells; format: cell-based; settings: H460 cells treated 72 hours, nuclear extract, plasmid relaxation
[6] = system: H1975 xenograft; test: H1975 xenograft in nude mice; format: in vivo; settings: i.v., BO-1978 40 mg/kg, gefitinib 10 mg/kg, daily for 5 consecutive days
[7] = system: CCRF-CEM; test: cytotoxicity in multiple drug-resistant and cisplatin-resistant cells; format: cell-based; settings: Homo sapiens
[8] = system: H1975 cells; test: cells; format: cell-based, human; settings: Homo sapiens, NCI-H1975, 72 h
[9] = system: PC9/gef B4 xenograft; test: PC9/gef B4 xenograft in nude mice; format: in vivo; settings: i.v., BO-1978 40 mg/kg, gefitinib 10 mg/kg, daily for 5 consecutive days
[10] = system: NTUB1/P; test: cytotoxicity in multiple drug-resistant and cisplatin-resistant cells; format: cell-based
[11] = system: H1299 cells; test: cells; format: cell-based, human; settings: Homo sapiens, NCI-H1299, 72 h
[12] = system: PC9 cells; test: cells; format: cell-based, human; settings: Homo sapiens, PC-9, 72 h
[13] = system: NTUB1; test: cytotoxicity in multiple drug-resistant and cisplatin-resistant cells; format: cell-based
[14] = system: CCRF/VBL; test: as above; format: cell-based
[15] = system: CL100 cells; test: cells; format: cell-based, human; settings: Homo sapiens, 72 h
[16] = system: CL1-5 cells; test: alamarBlue in vitro cytotoxicity assay; format: cell-based, human; settings: Homo sapiens, CL1-5, 72 h
[17] = system: H460 cells; test: modified comet assay of DNA ICLs; format: cell-based, human; settings: 1, 5, and 10 μM, 2 hours
[18] = system: A549 cells; test: cells; format: cell-based, human; settings: Homo sapiens, A549, 72 h
[19] = whole-blood pharmacokinetics in SD rats; format: in vivo
[20] = system: topo II; test: topo II activity assay with nuclear extracts of treated H460 cells; format: cell-based, human; settings: H460 cells treated 72 hours, nuclear extract, plasmid relaxation
[21] = system: H1650-Luc cells; test: orthotopic lung tumor model, IVIS; format: in vivo, nude mice; settings: BO-1978 40 mg/kg, gefitinib 10 mg/kg, daily for 5 consecutive days
[22] = system: pEGFP-N1 plasmid DNA; test: alkaline gel shift assay of DNA cross-linking; format: biochemical; settings: 0.125 to 2 μM, 2 hours, 37°C
[23] = stability in culture medium; format: physicochemical
[24] = system: H1650 cells; test: cells; format: cell-based, human; settings: Homo sapiens, NCI-H1650, 72 h
[25] = system: KB/vin10; test: cytotoxicity in multiple drug-resistant and cisplatin-resistant cells; format: cell-based
[26] = system: H460 cells; test: cell cycle analysis by flow cytometry; format: cell-based, human; settings: 1 to 4 μM, 24 to 72 hours
[27] = system: MES-SA; test: cytotoxicity in multiple drug-resistant and cisplatin-resistant cells; format: cell-based; settings: Homo sapiens
[28] = system: γH2AX, DNA-PK, and Rad51; test: Western blot of DNA damage response; format: cell-based, human; settings: H460 cells, 1 to 4 μM, 24 hours
[29] = system: H460 cells; test: cells; format: cell-based, human; settings: Homo sapiens, NCI-H460, 72 h
[30] = system: PC9 xenograft; test: PC9 xenograft in nude mice; format: in vivo; settings: i.v., BO-1978 40 mg/kg, gefitinib 10 mg/kg, daily for 5 consecutive days
[31] = stability in rat plasma; format: in vitro ADME
[32] = tissue distribution in SD rats; format: in vivo; settings: 30 minutes after administration, 10 mg/kg, n = 6
[33] = system: H460 xenograft; test: H460 xenograft in nude mice; format: in vivo
[34] = system: caspases 3 and 7; test: Western blot of apoptotic executor proteins; format: cell-based, human; settings: H460 cells
[35] = system: CL141T cells; test: cells; format: cell-based, human; settings: Homo sapiens, 72 h
[36] = system: H1650 xenograft; test: H1650 xenograft in nude mice; format: in vivo; settings: i.v., BO-1978 40 mg/kg, gefitinib 10 mg/kg, daily for 5 consecutive days
[37] = system: MES-SA/dx5; test: cytotoxicity in multiple drug-resistant and cisplatin-resistant cells; format: cell-based
[38] = system: CL97 cells; test: cells; format: cell-based, human; settings: Homo sapiens, CL97, 72 h
[39] = histopathological examination of major organs in ICR mice; format: in vivo; settings: 40 mg/kg i.v., days 2 and 14, histopathology and blood tests
[40] = system: KB; test: cytotoxicity in multiple drug-resistant and cisplatin-resistant cells; format: cell-based; settings: Homo sapiens
[41] = cited from earlier work
[42] = male, SD, rat, whole blood, iv, 10 mg/kg

Chain of topo I (P11387 whole entry): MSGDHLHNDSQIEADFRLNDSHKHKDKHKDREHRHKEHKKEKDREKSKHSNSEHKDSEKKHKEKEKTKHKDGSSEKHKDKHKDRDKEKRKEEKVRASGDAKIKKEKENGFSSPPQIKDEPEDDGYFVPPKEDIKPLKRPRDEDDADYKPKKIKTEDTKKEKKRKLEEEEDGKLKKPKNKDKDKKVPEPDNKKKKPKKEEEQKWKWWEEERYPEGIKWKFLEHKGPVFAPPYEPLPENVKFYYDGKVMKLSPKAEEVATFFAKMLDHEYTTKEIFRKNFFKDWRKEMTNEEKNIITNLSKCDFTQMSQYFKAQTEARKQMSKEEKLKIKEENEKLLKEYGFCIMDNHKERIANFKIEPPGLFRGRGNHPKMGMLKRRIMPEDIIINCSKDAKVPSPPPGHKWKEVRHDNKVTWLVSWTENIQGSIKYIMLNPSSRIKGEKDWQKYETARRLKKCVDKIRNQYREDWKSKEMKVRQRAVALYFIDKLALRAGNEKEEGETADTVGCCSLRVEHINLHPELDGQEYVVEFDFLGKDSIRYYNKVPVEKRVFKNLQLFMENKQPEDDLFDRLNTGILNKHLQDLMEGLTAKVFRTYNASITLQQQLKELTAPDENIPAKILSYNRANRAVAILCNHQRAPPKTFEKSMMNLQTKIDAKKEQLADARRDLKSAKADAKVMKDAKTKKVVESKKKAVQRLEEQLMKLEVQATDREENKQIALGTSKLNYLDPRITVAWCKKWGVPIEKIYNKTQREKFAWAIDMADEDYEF

For `CCc1c(CO)c(CO)c2n1Cc1c(c3ccccc3n1C)C2` [BO-1978, [3-ethyl-6-methyl-6,11-dihydro-5H-indolizino[6,7-b]indole-1,2-diyl]dimethanol], the IC50 ([1]; Homo sapiens, 72 h) was 1.58 ± 0.33 µM, the “resistance factor of PC9/gef B4 to PC9 cells” value ([1]; IC50 ratio, number in brackets) was 1.12 and the ALP ([2]; 14 Days) was 233.50 ± 36.74 U/l. The ALT ([2]; 14 Days) was 44.87 ± 19.72 U/l, the AST ([2]; 14 Days) was 86.14 ± 25.25 U/l and the BASO ([2]; 14 Days) was 0.09 ± 0.03 10^9/l. For the same molecule, the BUN ([2]; 14 Days) was 23.95 ± 1.71 mg/dL, the CRE ([2]; 14 Days) was 0.17 ± 0.05 mg/dL and the EOS ([2]; 14 Days) was 0.12 ± 0.13 10^9/l. The HCT ([2]; 14 Days) was 44.02 ± 1.18%, the HGB ([2]; 14 Days) was 12.78 ± 0.42 g/dL and the LYM ([2]; 14 Days) was 2.86 ± 0.88 10^9/l. For the same molecule, the MCH ([2]; 14 Days) was 16.38 ± 0.52 pg, the MCHC ([2]; 14 Days) was 29.05 ± 0.46 g/dL and the MCV ([2]; 14 Days) was 56.40 ± 1.69 fL. For the same molecule, the MONO ([2]; 14 Days) was 0.11 ± 0.09 10^9/l, the NEU ([2]; 14 Days) was 0.82 ± 0.47 10^9/l and the PLT ([2]; 14 Days) was 958.00 ± 178.31 10^9/l. For the same molecule, the RBC ([2]; 14 Days) was 7.81 ± 0.33 10^12/l, the WBC ([2]; 14 Days) was 4.00 ± 0.97 10^9/l and the ALP ([2]; 48 Hours) was 297.50 ± 72.11 U/l. For the same molecule, the ALT ([2]; 48 Hours) was 156.25 ± 236.88 U/l, the AST ([2]; 48 Hours) was 220.27 ± 153.45 U/l and the BASO ([2]; 48 Hours) was 0.06 ± 0.03 10^9/l. For the same molecule, the BUN ([2]; 48 Hours) was 19.48 ± 2.03 mg/dL, the CRE ([2]; 48 Hours) was 0.18 ± 0.15 mg/dL and the EOS ([2]; 48 Hours) was 0.05 ± 0.04 10^9/l. The HCT ([2]; 48 Hours) was 41.13 ± 1.95%, the HGB ([2]; 48 Hours) was 11.96 ± 0.53 g/dL and the LYM ([2]; 48 Hours) was 1.83 ± 1.17 10^9/l. It also gave an MCH ([2]; 48 Hours) of 16.75 ± 0.45 pg, an MCHC ([2]; 48 Hours) of 29.07 ± 0.40 g/dL and an MCV ([2]; 48 Hours) of 57.61 ± 1.27 fL. The MONO ([2]; 48 Hours) was 0.05 ± 0.04 10^9/l, the NEU ([2]; 48 Hours) was 0.45 ± 0.21 10^9/l and the PLT ([2]; 48 Hours) was 786.10 ± 90.60 10^9/l. For the same molecule, the RBC ([2]; 48 Hours) was 7.14 ± 0.38 10^12/l, the WBC ([2]; 48 Hours) was 2.43 ± 1.19 10^9/l and the LD50 [3] was 93.7 mg/kg. For the same molecule, the IC50 [4] was 1.06 to 3.5 µM, the “concentration at which topo I activity was significantly inhibited” value [5] was “greater than 0.5 μM” and the “suppression of xenograft tumor growth” value [6] was 26%. For the same molecule, the IC50 [7] was 0.46 ± 0.12 µM, the IC50 [8] was 2.34 ± 0.18 µM and the “suppression of xenograft tumor growth” value [9] was 73%. It also gave an IC50 ([10]; NTUB1) of 1.92 ± 0.39 µM, a resistance factor ([10]; NTUB1/P vs NTUB1) of 1.68 x and an IC50 [11] of 3.02 ± 0.65 µM. It also gave an IC50 [12] of 1.41 ± 0.37 µM, an IC50 [13] of 1.14 ± 0.32 µM and an IC50 [14] of 0.41 ± 0.03 µM. For the same molecule, the IC50 [15] was 1.51 ± 0.3 µM, the IC50 [16] was 1.47 ± 0.53 µM and the “tail moment in X-ray irradiated H460 cells (DNA ICLs)” value [17] was “dose-dependently induced shortened tail moments”. For the same molecule, the IC50 [18] was 3.15 ± 1.2 µM, the “systemic clearance as share of cardiac output of rats” value ([19]; cardiac output approximately 296 ml/min per kg) was “approximately 19%” and the systemic clearance ([19]; male SD rats, single i.v. 10 mg/kg) was 56.24 ± 14.90 ml/min per kg. The AUC(0-t) [19, 42] was 3140 ng·h/mL, the C0 [19, 42] was 8630 ng/mL and 27.8 µM and the MRT [19, 42] was 0.456 h. The half-life [19, 42] was 0.392 ± 0.118 h, the “concentration at which topo II activity was significantly inhibited” value [20] was “greater than 0.5 μM” and the “orthotopic growth of H1650-Luc cells” value [21] was “effectively suppressed”. The “formation of DNA ICLs in plasmid DNA” value [22] was “formed DNA ICLs”, the half-life [23] was 36.8 ± 2.19 h and the IC50 [24] was 3.5 ± 0.1 µM. For the same molecule, the IC50 ([25]; Homo sapiens, KB-VIN10) was 1.56 ± 0.51 µM, the resistance factor ([25]; KB/vin10 vs KB) was 0.79 x and the cell cycle interference [26] was “S phase delay at 24 hours and then G2 arrest at 72 hours”. For the same molecule, the IC50 [27] was 0.77 ± 0.08 µM, the “expression of γH2AX, DNA-PK, and Rad51” value [28] was “dose-dependently increased the expression levels” and the IC50 [29] was 1.06 ± 0.11 µM. The “suppression of xenograft tumor growth” value [30] was 55%, the half-life [31] was 89.4 ± 5.62 h and the “concentration in Blood” value [32] was 1.59 ± 0.48 μg/ml or μg/g. For the same molecule, the “concentration in Brain” value [32] was 3.97 ± 0.96 μg/ml or μg/g, the “concentration in Heart” value [32] was 1.79 ± 0.72 μg/ml or μg/g and the “concentration in Kidney” value [32] was 2.19 ± 0.12 μg/ml or μg/g. For the same molecule, the “concentration in Liver” value [32] was 10.71 ± 1.96 μg/ml or μg/g, the “concentration in Lung” value [32] was 3.13 ± 1.44 μg/ml or μg/g and the “concentration in Spleen” value [32] was 0.48 ± 0.08 μg/ml or μg/g. The body weight loss ([33]; H460 xenograft mice, BO-1978 40 mg/kg QDx5, cisplatin 6 mg/kg every 4 days x3) was “negligible”, the “H460 xenograft tumor size suppressed/reduced to” value ([33]; i.v., BO-1978 40 mg/kg QDx5, cisplatin 6 mg/kg every 4 days x3) was “approximately 65%” and the maximal tolerant dose ([33]; nude mice, i.v., given for 5 consecutive days (QDx5)) was 40 mg/kg. For the same molecule, the “cleavage of caspases 3 and 7” value [34] was “dose- and time-dependently induced cleavage of caspases 3 and 7”, the IC50 [35] was 1.32 ± 0.47 µM and the “suppression of xenograft tumor growth” value [36] was 30%. It also gave an IC50 ([37]; Homo sapiens, MES-SA/Dx5) of 0.47 ± 0.12 µM, a resistance factor ([37]; MES-SA/dx5 vs MES-SA) of 0.61 x and an IC50 [38] of 1.25 ± 0.18 µM. The “toxic effects in the major organs” value [39] was “did not cause apparent toxic effects in the major organs except for slight and recoverable liver damage” and the IC50 [40] was 1.96 ± 0.39 µM.
In the case of `Cn1c(CCCC(=O)O)nc2cc(N(CCCl)CCCl)ccc21` [bendamustine], the “elimination t1/2” value [41] is listed as “approximately 40 minutes”.
